Key:
Assay in all cases: relative viability (nuclei count vs DMSO), 5 days (fraction); higher = more cells survive
PC-14 = system: PC-14
How it was run: (§1)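 Relative viability is defined as nuclei in treated wells over nuclei in vehicle wells. Duplicate plates were run and medians reported. Lung cancer cell lines in 1536-well plates were dosed by pin tool one day after seeding, with one drug or with a fixed anchor-drug dose plus five library-drug doses (not always all listed) in √10 steps, and nuclei were counted after 5 days.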

LK-2 = system: LK-2
How it was run: as §1

NCI-H661 = system: NCI-H661
How it was run: as §1

NCI-H1993 = system: NCI-H1993
How it was run: as §1

ABC-1 = system: ABC-1
How it was run: as §1

A-427 = system: A-427
How it was run: as §1

NCI-H2405 = system: NCI-H2405
How it was run: as §1

NCI-H23 = system: NCI-H23
How it was run: as §1

NCI-H1755 = system: NCI-H1755
How it was run: as §1

NCI-H1793 = system: NCI-H1793
How it was run: as §1

LOU-NH91 = system: LOU-NH91
How it was run: as §1

LU99A = system: LU99A
How it was run: as §1

NCI-H2342 = system: NCI-H2342
How it was run: as §1

NCI-H1437 = system: NCI-H1437
How it was run: as §1

HARA = system: HARA
How it was run: as §1

BEN = system: BEN
How it was run: as §1

NCI-H2170 = system: NCI-H2170
How it was run: as §1

LCLC-103H = system: LCLC-103H
How it was run: as §1

NCI-H1666 = system: NCI-H1666
How it was run: as §1

NCI-H3122 = system: NCI-H3122
How it was run: as §1

NCI-H2085 = system: NCI-H2085
How it was run: as §1

LXF-289 = system: LXF-289
How it was run: as §1

RERF-LC-KJ = system: RERF-LC-KJ
How it was run: as §1

`C=C1C(=O)O[C@@H](CCCCCCCC)[C@@H]1C(=O)O` [C-75] + Cc1nc(Nc2ncc(C(=O)Nc3c(C)cccc3Cl)s2)cc(N2CCN(CCO)CC2)n1 [Dasatinib] (partner 0.075 µM) gave a relative viability (PC-14; first compound 0.08 µM) of 0.292, a relative viability (PC-14; first compound 0.253 µM) of 0.227 and a relative viability (PC-14; first compound 0.8 µM) of 0.27. For the same molecule, the relative viability (PC-14; first compound 2.53 µM) was 0.272, the relative viability (PC-14; first compound 8 µM) was 0.222 and the relative viability (LK-2; first compound 0.08 µM) was 0.388. The relative viability (LK-2; first compound 0.253 µM) was 0.433, the relative viability (LK-2; first compound 0.8 µM) was 0.309 and the relative viability (LK-2; first compound 2.53 µM) was 0.237. For the same molecule, the relative viability (LK-2; first compound 8 µM) was 0.291, the relative viability (NCI-H661; first compound 0.08 µM) was 0.839 and the relative viability (NCI-H661; first compound 0.253 µM) was 0.795. For the same molecule, the relative viability (NCI-H661; first compound 0.8 µM) was 0.857, the relative viability (NCI-H661; first compound 2.53 µM) was 0.856 and the relative viability (NCI-H661; first compound 8 µM) was 0.746. For the same molecule, the relative viability (NCI-H1993; first compound 0.08 µM) was 0.568, the relative viability (NCI-H1993; first compound 0.253 µM) was 0.861 and the relative viability (NCI-H1993; first compound 0.8 µM) was 0.475. For the same molecule, the relative viability (NCI-H1993; first compound 2.53 µM) was 0.553, the relative viability (NCI-H1993; first compound 8 µM) was 0.602 and the relative viability (ABC-1; first compound 0.08 µM) was 0.729. For the same molecule, the relative viability (ABC-1; first compound 0.253 µM) was 0.613, the relative viability (ABC-1; first compound 0.8 µM) was 0.566 and the relative viability (ABC-1; first compound 2.53 µM) was 0.585. It also gave a relative viability (ABC-1; first compound 8 µM) of 0.388, a relative viability (A-427; first compound 0.08 µM) of 0.689 and a relative viability (A-427; first compound 0.253 µM) of 0.661. It also gave a relative viability (A-427; first compound 0.8 µM) of 0.645, a relative viability (A-427; first compound 2.53 µM) of 0.605 and a relative viability (A-427; first compound 8 µM) of 0.658. The relative viability (NCI-H2405; first compound 0.08 µM) was 0.196, the relative viability (NCI-H2405; first compound 0.253 µM) was 0.191 and the relative viability (NCI-H2405; first compound 0.8 µM) was 0.188. For the same molecule, the relative viability (NCI-H2405; first compound 2.53 µM) was 0.216, the relative viability (NCI-H2405; first compound 8 µM) was 0.22 and the relative viability (NCI-H23; first compound 0.08 µM) was 0.81. The relative viability (NCI-H23; first compound 0.253 µM) was 0.756, the relative viability (NCI-H23; first compound 0.8 µM) was 0.718 and the relative viability (NCI-H23; first compound 2.53 µM) was 0.443. It also gave a relative viability (NCI-H23; first compound 8 µM) of 0.586, a relative viability (NCI-H1755; first compound 0.08 µM) of 0.42 and a relative viability (NCI-H1755; first compound 0.253 µM) of 0.33. For the same molecule, the relative viability (NCI-H1755; first compound 0.8 µM) was 0.404, the relative viability (NCI-H1755; first compound 2.53 µM) was 0.259 and the relative viability (NCI-H1755; first compound 8 µM) was 0.43. For the same molecule, the relative viability (NCI-H1793; first compound 0.08 µM) was 0.399, the relative viability (NCI-H1793; first compound 0.253 µM) was 0.373 and the relative viability (NCI-H1793; first compound 0.8 µM) was 0.32. It also gave a relative viability (NCI-H1793; first compound 2.53 µM) of 0.352, a relative viability (NCI-H1793; first compound 8 µM) of 0.373 and a relative viability (LOU-NH91; first compound 0.08 µM) of 0.605. The relative viability (LOU-NH91; first compound 0.253 µM) was 0.527, the relative viability (LOU-NH91; first compound 0.8 µM) was 0.492 and the relative viability (LOU-NH91; first compound 2.53 µM) was 0.414. The relative viability (LOU-NH91; first compound 8 µM) was 0.544, the relative viability (LU99A; first compound 0.08 µM) was 0.597 and the relative viability (LU99A; first compound 0.253 µM) was 0.558. It also gave a relative viability (LU99A; first compound 0.8 µM) of 0.549, a relative viability (LU99A; first compound 2.53 µM) of 0.495 and a relative viability (LU99A; first compound 8 µM) of 0.38. For the same molecule, the relative viability (NCI-H2342; first compound 0.08 µM) was 0.3, the relative viability (NCI-H2342; first compound 0.253 µM) was 0.314 and the relative viability (NCI-H2342; first compound 0.8 µM) was 0.301. For the same molecule, the relative viability (NCI-H2342; first compound 2.53 µM) was 0.327, the relative viability (NCI-H2342; first compound 8 µM) was 0.316 and the relative viability (NCI-H1437; first compound 0.08 µM) was 0.4. The relative viability (NCI-H1437; first compound 0.253 µM) was 0.381, the relative viability (NCI-H1437; first compound 0.8 µM) was 0.367 and the relative viability (NCI-H1437; first compound 2.53 µM) was 0.298. The relative viability (NCI-H1437; first compound 8 µM) was 0.458, the relative viability (HARA; first compound 0.08 µM) was 0.257 and the relative viability (HARA; first compound 0.253 µM) was 0.241. For the same molecule, the relative viability (HARA; first compound 0.8 µM) was 0.239, the relative viability (HARA; first compound 2.53 µM) was 0.178 and the relative viability (HARA; first compound 8 µM) was 0.298. For the same molecule, the relative viability (BEN; first compound 0.08 µM) was 0.317, the relative viability (BEN; first compound 0.253 µM) was 0.271 and the relative viability (BEN; first compound 0.8 µM) was 0.326. The relative viability (BEN; first compound 8 µM) was 0.288, the relative viability (NCI-H2170; first compound 0.08 µM) was 0.692 and the relative viability (NCI-H2170; first compound 0.253 µM) was 0.552. It also gave a relative viability (NCI-H2170; first compound 0.8 µM) of 0.552, a relative viability (NCI-H2170; first compound 2.53 µM) of 0.476 and a relative viability (NCI-H2170; first compound 8 µM) of 0.522. The relative viability (LCLC-103H; first compound 0.08 µM) was 0.445, the relative viability (LCLC-103H; first compound 0.253 µM) was 0.451 and the relative viability (LCLC-103H; first compound 0.8 µM) was 0.511. The relative viability (LCLC-103H; first compound 2.53 µM) was 0.351, the relative viability (LCLC-103H; first compound 8 µM) was 0.524 and the relative viability (NCI-H1666; first compound 0.08 µM) was 0.836. For the same molecule, the relative viability (NCI-H1666; first compound 0.253 µM) was 0.779, the relative viability (NCI-H1666; first compound 0.8 µM) was 0.74 and the relative viability (NCI-H1666; first compound 2.53 µM) was 0.719. It also gave a relative viability (NCI-H1666; first compound 8 µM) of 0.711, a relative viability (NCI-H3122; first compound 0.08 µM) of 0.832 and a relative viability (NCI-H3122; first compound 0.253 µM) of 0.798. For the same molecule, the relative viability (NCI-H3122; first compound 0.8 µM) was 0.583, the relative viability (NCI-H3122; first compound 2.53 µM) was 0.594 and the relative viability (NCI-H3122; first compound 8 µM) was 0.742. It also gave a relative viability (NCI-H2085; first compound 0.08 µM) of 0.264, a relative viability (NCI-H2085; first compound 0.253 µM) of 0.309 and a relative viability (NCI-H2085; first compound 0.8 µM) of 0.284. The relative viability (NCI-H2085; first compound 2.53 µM) was 0.266, the relative viability (NCI-H2085; first compound 8 µM) was 0.259 and the relative viability (LXF-289; first compound 0.08 µM) was 0.22. It also gave a relative viability (LXF-289; first compound 0.253 µM) of 0.137, a relative viability (LXF-289; first compound 0.8 µM) of 0.26 and a relative viability (LXF-289; first compound 2.53 µM) of 0.163. It also gave a relative viability (LXF-289; first compound 8 µM) of 0.22, a relative viability (RERF-LC-KJ; first compound 0.08 µM) of 0.917 and a relative viability (RERF-LC-KJ; first compound 0.253 µM) of 0.901. For the same molecule, the relative viability (RERF-LC-KJ; first compound 0.8 µM) was 0.819, the relative viability (RERF-LC-KJ; first compound 2.53 µM) was 0.682 and the relative viability (RERF-LC-KJ; first compound 8 µM) was 0.798.
